Results reported in paper PMC11859905, “Flavonoids as Potential Modulators of Pancreatic Lipase Catalytic Activity” (Pharmaceutics, 2025).
Where two headings read alike, the source gives them in different places.

Legend:
[1] = target: T1, porcine pancreatic lipase (Sus scrofa, UniProt P00591); experiment: Inhibition kinetics of porcine pancreatic lipase (nonlinear regression, Solver); assay type: biochemical; design: compare it to the effects of the porcine pancreas (type II, EC 3.1.1.3); from tissue; host or cells: porcine pancreas (type II preparation); conditions: for Inhibition Model / Vmax / Ki: porcine pancreatic lipase; for Vmax / Ki: ± SEM; for Vmax: in µmol/min
T1 sequence (P00591 1-450): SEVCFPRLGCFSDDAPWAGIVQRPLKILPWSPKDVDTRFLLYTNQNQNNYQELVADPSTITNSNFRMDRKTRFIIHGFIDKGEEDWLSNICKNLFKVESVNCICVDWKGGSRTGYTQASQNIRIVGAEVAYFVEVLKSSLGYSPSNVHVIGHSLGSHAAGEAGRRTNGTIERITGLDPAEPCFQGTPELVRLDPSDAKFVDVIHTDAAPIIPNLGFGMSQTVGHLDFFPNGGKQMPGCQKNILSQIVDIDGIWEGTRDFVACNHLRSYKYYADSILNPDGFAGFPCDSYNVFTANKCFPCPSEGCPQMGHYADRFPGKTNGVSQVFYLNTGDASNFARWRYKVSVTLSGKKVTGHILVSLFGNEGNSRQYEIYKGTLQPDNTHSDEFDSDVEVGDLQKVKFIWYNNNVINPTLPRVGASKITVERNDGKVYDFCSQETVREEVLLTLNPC

human pancreatic lipase [2] = target: T2, human pancreatic lipase (Homo sapiens, UniProt P16233); experiment: In vitro assay using human pancreatic lipase (4-MUO hydrolysis, fluorometric); assay type: biochemical; conditions: for IC50: human PL 2 U/mL, 4-MUO 0.05 mM, mean ± SEM; for inhibition at 100 µM: read-out: PL Inhibition (%) ± SEM, Human;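 for all read-outs here: Read-out is the initial rate of fluorescent 4-MU release as HPL cleaves the 4-MUO substrate, a rate that scales with the amount of enzyme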
T2 construct: PL from the human pancreas (triacylglycerol acyl hydrolase, EC 3.1.1.3); from tissue; host or cells: human pancreas
T2 sequence (P16233 17-465): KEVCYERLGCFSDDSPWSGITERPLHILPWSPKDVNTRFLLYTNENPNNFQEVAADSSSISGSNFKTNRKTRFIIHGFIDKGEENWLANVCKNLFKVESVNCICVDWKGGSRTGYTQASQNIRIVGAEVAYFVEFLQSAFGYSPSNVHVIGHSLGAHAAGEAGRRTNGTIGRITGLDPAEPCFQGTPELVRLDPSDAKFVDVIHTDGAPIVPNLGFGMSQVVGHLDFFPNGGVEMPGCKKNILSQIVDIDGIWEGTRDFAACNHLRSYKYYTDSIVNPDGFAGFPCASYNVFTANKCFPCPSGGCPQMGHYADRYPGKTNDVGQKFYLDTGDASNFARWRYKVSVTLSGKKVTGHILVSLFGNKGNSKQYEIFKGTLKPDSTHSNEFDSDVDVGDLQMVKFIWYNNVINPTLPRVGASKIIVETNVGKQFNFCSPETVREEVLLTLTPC

[3] = target: T1, porcine pancreatic lipase; experiment: In vitro assay using porcine pancreatic lipase (4-MUO hydrolysis, fluorometric);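 note: product 4-methylumbeliferone formation tracked fluorometrically, catalytic rate from RFU slope over the 10–30 min window, compounds checked beforehand for own fluorescence, at least three independent experiments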
human pancreatic lipase [4] = target: T2, human pancreatic lipase; experiment: Inhibition kinetics of human pancreatic lipase (nonlinear regression, Solver); assay type: biochemical
[5] = target: T1, porcine pancreatic lipase; design: compare it to the effects of the porcine pancreas (type II, EC 3.1.1.3); from tissue; host or cells: porcine pancreas (type II preparation); conditions: not calculated in this paper; cited from earlier work
[6] = competitive constant, read-out: Kic

| SMILES | Inhibition Model [1] | Vmax [1] | IC50 [3] [µM] | Ki [1, 6] [µM] | inhibition at 100 µM (human pancreatic lipase [2]) [%] | Inhibition Model (human pancreatic lipase [4]; human pancreatic lipase) | IC50 (human pancreatic lipase [2]) [µM] | further results |
| --- | --- | --- | --- | --- | --- | --- | --- | --- |
| O=c1c(O)c(-c2ccc(O)c(O)c2)oc2cc(O)cc(O)c12 [Flavonoid 27, Quercetin] | Competitive | 354 ± 3 |  |  |  |  |  | inhibition at 75 µM (human pancreatic lipase [2]; read-out: PL Inhibition (%) ± SEM, Human, at 75 μM): < 46% |
| CCCCCCCCCCc1c(-c2ccc(O)c(O)c2)oc2cc(O)cc(O)c2c1=O [Flavonoid 30] | Competitive | 507 ± 4 | 7.3 ± 0.6 | 1.78 ± 0.04 |  | mixed-type | 3.2 ± 0.1 | binding affinity to PPL, times higher than the other compounds (from Kic) ([1]; versus 38, 27 and 41): approximately 10; Ki (human pancreatic lipase [4]; human pancreatic lipase, first Kic column of Table 4, ± SEM): 1.3 ± 0.3 µM; Vmax (human pancreatic lipase [4]; human pancreatic lipase, ± SEM): 260 ± 10; potency against HPL from Kic, times higher than 38 (myricetin) (human pancreatic lipase [4]; versus 38): approximately 60 |
| O=c1c(O)c(-c2cc(O)c(O)c(O)c2)oc2cc(O)cc(O)c12 [Flavonoid 38, Myricetin] |  |  | 16 ± 1 | 12 ± 0.8 |  | Noncompetitive | 25 ± 2 | Ki ([1]; uncompetitive constant, read-out: Kiu): 58 ± 3 µM |
| CCCCCCCCCCC[C@@H](C[C@@H]1OC(=O)[C@H]1CCCCCC)OC(=O)[C@H](CC(C)C)NC=O [Orlistat] |  |  |  |  |  |  |  | type of PL inhibition [5]: irreversible |

More lines, main results first:

| Inhibition Model [1] | Vmax [1] | IC50 [3] [µM] | Ki [1, 6] [µM] | inhibition at 100 µM (human pancreatic lipase [2]) [%] | SMILES | Inhibition Model (human pancreatic lipase [4]; human pancreatic lipase) | IC50 (human pancreatic lipase [2]) [µM] | further results |
| --- | --- | --- | --- | --- | --- | --- | --- | --- |
| Competitive | 680 ± 7 | 32 ± 4 | 21 ± 3 | < 30 | O=C(O[C@@H]1Cc2c(O)cc(O)cc2O[C@@H]1c1cc(O)c(O)c(O)c1)c1cc(O)c(O)c(O)c1 [Flavonoid 41, (–)-Epigallocatechin gallate] |  |  |  |
|  |  |  |  | < 30 | Oc1cc(O)c2c(c1)O[C@H](c1ccc(O)c(O)c1)[C@H](O)C2 [Flavonoid 39, (–)-Epicatechin] |  |  | inhibition at 100 µM ([3]; read-out: PL Inhibition (%) ± SEM, Porcine): < 30% |
